Results from ChEMBL document CHEMBL4033665, “Synthesis and applications of benzohydroxamic acid-based histone deacetylase inhibitors” (Eur J Med Chem, 2017).
Each block holds one compound with its values, some of them ahead of it.

What was measured:
Histone deacetylase 8 [1] = molecular target: T1, Histone deacetylase 8 (Homo sapiens, UniProt Q9BY41); assay: Inhibition of HDAC8 (unknown origin)
T1 sequence (Q9BY41 whole entry): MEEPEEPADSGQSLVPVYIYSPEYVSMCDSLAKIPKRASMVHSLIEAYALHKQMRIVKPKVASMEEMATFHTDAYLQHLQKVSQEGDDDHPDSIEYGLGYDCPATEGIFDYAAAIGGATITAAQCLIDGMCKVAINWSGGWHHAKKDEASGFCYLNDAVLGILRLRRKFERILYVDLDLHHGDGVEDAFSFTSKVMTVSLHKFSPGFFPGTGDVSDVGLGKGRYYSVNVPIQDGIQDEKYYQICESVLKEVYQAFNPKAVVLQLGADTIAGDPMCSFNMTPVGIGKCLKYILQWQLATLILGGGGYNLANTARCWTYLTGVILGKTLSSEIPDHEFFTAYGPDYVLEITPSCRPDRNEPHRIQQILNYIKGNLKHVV

[2] = molecular target: T2, Protein deacetylase HDAC6 (Homo sapiens, UniProt Q9UBN7); assay: Inhibition of HDAC6 (unknown origin)
T2 sequence (Q9UBN7 whole entry): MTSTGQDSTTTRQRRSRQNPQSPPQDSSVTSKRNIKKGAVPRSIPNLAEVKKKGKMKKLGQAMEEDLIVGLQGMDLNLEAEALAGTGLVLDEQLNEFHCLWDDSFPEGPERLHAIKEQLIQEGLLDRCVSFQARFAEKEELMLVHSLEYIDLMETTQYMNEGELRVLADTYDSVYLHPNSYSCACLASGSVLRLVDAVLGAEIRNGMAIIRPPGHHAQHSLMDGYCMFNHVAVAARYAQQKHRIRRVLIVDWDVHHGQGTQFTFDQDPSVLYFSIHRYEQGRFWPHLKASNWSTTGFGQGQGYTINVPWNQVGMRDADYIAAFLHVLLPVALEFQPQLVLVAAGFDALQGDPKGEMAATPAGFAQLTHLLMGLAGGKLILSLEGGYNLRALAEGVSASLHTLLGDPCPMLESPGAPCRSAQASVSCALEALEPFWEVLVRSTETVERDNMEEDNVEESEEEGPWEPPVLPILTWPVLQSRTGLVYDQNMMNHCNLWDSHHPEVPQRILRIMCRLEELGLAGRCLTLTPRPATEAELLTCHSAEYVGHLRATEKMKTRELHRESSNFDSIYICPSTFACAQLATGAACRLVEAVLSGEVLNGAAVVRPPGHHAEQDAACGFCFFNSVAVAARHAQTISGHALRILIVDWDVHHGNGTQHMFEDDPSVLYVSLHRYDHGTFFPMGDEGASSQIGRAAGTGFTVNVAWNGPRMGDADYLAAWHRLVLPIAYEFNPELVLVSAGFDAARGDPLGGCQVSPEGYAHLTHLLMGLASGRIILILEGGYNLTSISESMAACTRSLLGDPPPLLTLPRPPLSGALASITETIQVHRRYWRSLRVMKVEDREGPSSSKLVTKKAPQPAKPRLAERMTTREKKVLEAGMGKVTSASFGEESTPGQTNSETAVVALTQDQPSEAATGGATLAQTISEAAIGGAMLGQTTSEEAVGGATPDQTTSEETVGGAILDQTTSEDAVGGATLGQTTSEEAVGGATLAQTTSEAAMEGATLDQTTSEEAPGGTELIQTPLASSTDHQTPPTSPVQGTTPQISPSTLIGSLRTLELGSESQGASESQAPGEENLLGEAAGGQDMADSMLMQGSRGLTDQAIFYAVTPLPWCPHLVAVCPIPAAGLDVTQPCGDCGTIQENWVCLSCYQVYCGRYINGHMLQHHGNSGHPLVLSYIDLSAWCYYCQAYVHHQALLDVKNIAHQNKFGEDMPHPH

Histone deacetylase 2 [3] = molecular target: T3, Histone deacetylase 2 (Homo sapiens, UniProt Q92769); assay: Inhibition of HDAC2 (unknown origin)
Histone deacetylase 5 = Histone deacetylase 5 (Homo sapiens, UniProt Q9UQL6); assay: Inhibition of HDAC5 (unknown origin)
Histone deacetylase 3 [4] = molecular target: T4, Histone deacetylase 3 (Homo sapiens, UniProt O15379); assay: Inhibition of HDAC3 (unknown origin)
Histone deacetylase 4 = Histone deacetylase 4 (Homo sapiens, UniProt P56524); assay: Inhibition of HDAC4 (unknown origin)
Histone deacetylase 11 = molecular target: T5, Histone deacetylase 11 (Homo sapiens, UniProt Q96DB2); assay: Inhibition of HDAC11 (unknown origin)
T5 sequence (Q96DB2 whole entry): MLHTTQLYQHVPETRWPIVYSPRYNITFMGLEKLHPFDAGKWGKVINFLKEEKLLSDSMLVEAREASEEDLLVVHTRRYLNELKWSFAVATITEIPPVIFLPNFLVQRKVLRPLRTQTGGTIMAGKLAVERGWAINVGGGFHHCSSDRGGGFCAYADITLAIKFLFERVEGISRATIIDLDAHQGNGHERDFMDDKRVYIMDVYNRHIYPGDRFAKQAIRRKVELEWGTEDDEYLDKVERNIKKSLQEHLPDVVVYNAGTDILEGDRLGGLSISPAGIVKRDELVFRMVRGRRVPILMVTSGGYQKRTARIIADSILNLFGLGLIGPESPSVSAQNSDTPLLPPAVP

[5] = molecular target: T6, Polyamine deacetylase HDAC10 (Homo sapiens, UniProt Q969S8); assay: Inhibition of HDAC10 (unknown origin)
T6 sequence (Q969S8 whole entry): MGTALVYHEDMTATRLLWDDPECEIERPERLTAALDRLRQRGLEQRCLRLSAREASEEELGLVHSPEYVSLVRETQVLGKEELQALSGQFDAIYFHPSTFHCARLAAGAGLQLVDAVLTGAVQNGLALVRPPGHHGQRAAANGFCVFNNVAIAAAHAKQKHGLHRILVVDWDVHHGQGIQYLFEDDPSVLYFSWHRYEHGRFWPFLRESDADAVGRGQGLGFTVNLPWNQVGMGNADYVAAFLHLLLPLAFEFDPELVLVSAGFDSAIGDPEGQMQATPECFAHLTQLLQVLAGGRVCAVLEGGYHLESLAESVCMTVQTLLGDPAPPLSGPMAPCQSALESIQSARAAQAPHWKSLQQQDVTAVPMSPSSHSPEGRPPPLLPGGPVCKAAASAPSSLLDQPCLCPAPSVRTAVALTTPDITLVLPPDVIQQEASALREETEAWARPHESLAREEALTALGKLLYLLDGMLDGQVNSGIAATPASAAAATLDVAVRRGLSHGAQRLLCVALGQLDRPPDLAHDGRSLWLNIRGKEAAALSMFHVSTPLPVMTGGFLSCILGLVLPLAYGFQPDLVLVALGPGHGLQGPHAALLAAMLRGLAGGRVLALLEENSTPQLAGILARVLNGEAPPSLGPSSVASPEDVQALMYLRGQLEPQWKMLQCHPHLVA

Histone deacetylase 1 [6] = molecular target: T7, Histone deacetylase 1 (Homo sapiens, UniProt Q13547); assay: Inhibition of HDAC1 (unknown origin)
Histone deacetylase 9 = Histone deacetylase 9 (Homo sapiens, UniProt Q9UKV0); assay: Inhibition of HDAC9 (unknown origin)
[7] = molecular target: T2, Protein deacetylase HDAC6; assay: Inhibition of N-terminal GST-tagged full length human HDAC6 expressed in baculovirus expression system in Sf9 cells using AMC-labeled RHKKAc as substrate after 2 hrs by fluorescence assay
Histone deacetylase 3 [8] = molecular target: T4, Histone deacetylase 3; assay: Inhibition of C-terminal His-tagged full length human HDAC3 expressed in baculovirus expression system using AMC-labeled RHKKAc as substrate after 2 hrs by fluorescence assay
Histone deacetylase 1 [9] = molecular target: T7, Histone deacetylase 1; assay: Inhibition of C-terminal GST-tagged full length human HDAC1 expressed in baculovirus expression system in Sf9 cells using AMC-labeled RHKKAc as substrate after 2 hrs by fluorescence assay
[10] = Inhibition of maize HD2; parameters: species or system Zea mays
Histone deacetylase HD1B = Histone deacetylase HD1B (Zea mays, UniProt Q9ZTP8); assay: Inhibition of maize HD1B
[11] = Inhibition of maize HD1A; parameters: species or system Zea mays
Histone deacetylase 2 [12] = molecular target: T3, Histone deacetylase 2; assay: Inhibition of human HDAC2 after 15 mins by trypsin-coupled fluorescence assay
Histone deacetylase 1 [13] = molecular target: T7, Histone deacetylase 1; assay: Inhibition of human HDAC1 using MAL as substrate at 100 uM after 90 mins by fluorescence assay
[14] = molecular target: T8, Protein deacetylase HDAC6 (Homo sapiens) (UniProt Q9UBN7); assay: Inhibition of human HDAC6 at 100 uM after 90 mins by fluorescence assay
T8 sequence (whole entry): T2 sequence (Q9UBN7 whole entry)

Histone deacetylase 8 [15] = molecular target: T1, Histone deacetylase 8; assay: Inhibition of human HDAC8 using ZMTFAL as substrate after 90 mins by fluorescence assay
[16] = Inhibition of HDAC activity in human DU-145 cell nuclear extract

T7 sequence (Q13547 whole entry): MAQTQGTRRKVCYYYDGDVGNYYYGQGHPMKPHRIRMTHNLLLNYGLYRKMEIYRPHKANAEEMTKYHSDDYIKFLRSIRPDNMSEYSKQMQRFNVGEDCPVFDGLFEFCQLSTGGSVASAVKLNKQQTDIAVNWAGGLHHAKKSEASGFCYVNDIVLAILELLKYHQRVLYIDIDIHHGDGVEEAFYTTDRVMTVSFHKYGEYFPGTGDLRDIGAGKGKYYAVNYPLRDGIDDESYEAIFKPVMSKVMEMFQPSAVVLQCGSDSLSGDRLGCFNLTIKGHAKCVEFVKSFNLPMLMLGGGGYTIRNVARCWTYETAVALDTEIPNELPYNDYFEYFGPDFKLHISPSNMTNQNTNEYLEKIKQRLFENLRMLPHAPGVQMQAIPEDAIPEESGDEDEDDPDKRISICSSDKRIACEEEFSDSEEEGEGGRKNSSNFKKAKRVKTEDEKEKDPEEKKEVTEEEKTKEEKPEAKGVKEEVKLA
T4 sequence (O15379 whole entry): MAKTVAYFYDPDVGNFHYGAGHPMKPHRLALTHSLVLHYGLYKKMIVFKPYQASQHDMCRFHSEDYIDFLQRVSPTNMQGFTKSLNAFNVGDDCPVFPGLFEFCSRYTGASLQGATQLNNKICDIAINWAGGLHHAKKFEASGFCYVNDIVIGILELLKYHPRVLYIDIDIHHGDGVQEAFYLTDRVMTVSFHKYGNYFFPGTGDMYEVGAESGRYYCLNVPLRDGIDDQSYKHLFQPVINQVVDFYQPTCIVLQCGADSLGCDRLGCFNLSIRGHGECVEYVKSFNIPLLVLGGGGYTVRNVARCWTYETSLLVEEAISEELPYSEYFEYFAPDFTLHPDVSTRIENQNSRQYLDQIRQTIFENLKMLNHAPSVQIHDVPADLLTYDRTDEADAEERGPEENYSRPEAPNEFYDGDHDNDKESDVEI
T3 sequence (Q92769 whole entry): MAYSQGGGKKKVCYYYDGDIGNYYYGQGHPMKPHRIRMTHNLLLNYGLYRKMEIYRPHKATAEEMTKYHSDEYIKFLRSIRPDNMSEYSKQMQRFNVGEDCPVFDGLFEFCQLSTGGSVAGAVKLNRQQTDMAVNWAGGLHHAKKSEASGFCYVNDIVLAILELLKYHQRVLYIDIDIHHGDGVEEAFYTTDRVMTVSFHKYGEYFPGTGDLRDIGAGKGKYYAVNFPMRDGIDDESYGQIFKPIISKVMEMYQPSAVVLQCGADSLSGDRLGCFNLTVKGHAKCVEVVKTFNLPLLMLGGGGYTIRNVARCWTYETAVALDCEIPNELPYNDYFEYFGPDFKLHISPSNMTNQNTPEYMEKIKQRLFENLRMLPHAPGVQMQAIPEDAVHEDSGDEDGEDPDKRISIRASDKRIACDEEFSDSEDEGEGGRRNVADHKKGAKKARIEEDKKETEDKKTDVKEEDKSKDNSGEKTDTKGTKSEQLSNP
Chain of Histone deacetylase 5 (Q9UQL6 whole entry): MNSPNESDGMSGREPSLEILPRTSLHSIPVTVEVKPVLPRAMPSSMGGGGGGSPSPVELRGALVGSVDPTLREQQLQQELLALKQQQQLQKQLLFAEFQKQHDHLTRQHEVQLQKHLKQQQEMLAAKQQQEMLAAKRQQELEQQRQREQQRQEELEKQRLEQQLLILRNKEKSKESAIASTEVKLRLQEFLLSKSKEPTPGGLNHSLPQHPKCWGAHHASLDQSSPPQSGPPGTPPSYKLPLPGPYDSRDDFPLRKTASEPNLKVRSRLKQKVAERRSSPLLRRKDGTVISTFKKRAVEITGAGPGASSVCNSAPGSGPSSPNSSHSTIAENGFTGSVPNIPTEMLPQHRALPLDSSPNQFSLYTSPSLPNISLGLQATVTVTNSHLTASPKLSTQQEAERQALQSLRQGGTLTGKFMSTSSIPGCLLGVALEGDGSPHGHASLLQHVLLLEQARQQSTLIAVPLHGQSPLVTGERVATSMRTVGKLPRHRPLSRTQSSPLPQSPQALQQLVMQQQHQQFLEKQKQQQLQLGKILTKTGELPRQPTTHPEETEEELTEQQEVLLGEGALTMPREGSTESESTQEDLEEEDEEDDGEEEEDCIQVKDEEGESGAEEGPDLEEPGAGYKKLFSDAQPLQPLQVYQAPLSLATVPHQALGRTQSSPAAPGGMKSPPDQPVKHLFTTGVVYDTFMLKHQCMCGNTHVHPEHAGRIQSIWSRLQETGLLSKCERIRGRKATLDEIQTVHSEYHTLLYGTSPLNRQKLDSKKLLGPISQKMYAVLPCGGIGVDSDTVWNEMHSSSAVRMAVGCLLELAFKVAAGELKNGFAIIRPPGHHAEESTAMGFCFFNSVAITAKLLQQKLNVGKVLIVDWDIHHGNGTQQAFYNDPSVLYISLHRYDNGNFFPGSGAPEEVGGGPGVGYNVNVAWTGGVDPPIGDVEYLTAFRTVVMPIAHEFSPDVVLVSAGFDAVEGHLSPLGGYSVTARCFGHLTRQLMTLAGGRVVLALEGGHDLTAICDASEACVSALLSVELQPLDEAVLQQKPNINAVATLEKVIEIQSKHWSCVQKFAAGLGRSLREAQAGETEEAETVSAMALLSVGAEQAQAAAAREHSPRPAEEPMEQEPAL
Chain of Histone deacetylase 4 (P56524 whole entry): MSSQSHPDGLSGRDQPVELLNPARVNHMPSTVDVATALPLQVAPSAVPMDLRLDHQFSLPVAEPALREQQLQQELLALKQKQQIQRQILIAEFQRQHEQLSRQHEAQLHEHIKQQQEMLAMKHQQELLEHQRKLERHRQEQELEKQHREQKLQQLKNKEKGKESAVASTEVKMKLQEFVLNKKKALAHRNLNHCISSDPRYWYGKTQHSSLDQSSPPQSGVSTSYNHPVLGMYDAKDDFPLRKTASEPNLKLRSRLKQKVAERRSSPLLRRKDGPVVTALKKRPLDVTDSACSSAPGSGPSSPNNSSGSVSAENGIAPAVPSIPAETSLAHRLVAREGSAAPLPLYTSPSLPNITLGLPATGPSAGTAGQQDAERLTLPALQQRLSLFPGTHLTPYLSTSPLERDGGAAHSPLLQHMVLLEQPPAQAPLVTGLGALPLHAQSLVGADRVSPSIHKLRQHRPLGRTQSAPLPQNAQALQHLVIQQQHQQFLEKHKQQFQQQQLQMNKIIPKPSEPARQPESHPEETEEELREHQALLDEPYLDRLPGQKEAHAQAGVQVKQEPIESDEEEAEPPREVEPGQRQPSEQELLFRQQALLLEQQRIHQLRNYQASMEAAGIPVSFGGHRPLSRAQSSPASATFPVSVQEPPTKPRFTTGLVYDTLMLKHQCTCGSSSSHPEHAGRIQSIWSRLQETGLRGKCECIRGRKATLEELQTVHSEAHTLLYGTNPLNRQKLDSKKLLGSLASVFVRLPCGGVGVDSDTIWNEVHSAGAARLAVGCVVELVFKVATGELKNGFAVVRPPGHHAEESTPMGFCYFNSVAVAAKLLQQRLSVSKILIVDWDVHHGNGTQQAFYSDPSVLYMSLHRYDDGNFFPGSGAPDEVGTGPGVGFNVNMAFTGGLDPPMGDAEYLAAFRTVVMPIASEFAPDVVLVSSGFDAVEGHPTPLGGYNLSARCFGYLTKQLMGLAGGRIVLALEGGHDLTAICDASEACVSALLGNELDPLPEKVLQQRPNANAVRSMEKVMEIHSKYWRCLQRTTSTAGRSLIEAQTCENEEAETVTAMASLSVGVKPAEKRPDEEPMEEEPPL
Chain of Histone deacetylase 9 (Q9UKV0 whole entry): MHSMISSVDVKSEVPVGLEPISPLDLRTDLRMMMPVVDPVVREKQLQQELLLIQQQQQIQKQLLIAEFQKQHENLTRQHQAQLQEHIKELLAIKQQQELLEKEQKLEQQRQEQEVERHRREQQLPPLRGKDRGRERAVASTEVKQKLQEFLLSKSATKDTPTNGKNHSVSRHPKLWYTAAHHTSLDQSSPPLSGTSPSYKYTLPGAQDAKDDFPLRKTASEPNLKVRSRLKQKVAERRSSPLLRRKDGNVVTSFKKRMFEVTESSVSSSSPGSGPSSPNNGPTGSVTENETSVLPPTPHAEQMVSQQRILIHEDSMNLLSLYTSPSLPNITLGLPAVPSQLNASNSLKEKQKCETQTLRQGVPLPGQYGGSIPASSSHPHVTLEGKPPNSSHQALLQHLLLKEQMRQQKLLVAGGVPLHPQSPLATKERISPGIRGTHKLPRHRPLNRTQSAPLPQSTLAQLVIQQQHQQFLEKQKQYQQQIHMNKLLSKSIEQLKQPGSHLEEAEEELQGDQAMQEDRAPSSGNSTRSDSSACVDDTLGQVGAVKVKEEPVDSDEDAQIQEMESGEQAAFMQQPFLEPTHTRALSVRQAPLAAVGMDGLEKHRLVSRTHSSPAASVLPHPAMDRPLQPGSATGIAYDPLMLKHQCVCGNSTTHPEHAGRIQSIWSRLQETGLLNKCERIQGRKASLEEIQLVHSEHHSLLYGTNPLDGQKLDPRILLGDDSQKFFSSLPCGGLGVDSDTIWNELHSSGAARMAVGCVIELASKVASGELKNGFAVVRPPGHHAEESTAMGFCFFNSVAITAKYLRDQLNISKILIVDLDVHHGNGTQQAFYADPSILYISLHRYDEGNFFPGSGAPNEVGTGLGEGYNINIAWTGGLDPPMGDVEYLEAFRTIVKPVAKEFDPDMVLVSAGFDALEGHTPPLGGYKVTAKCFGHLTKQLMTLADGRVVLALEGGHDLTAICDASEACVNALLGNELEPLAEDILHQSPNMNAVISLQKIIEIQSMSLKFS
Chain of Histone deacetylase HD1B (Q9ZTP8 whole entry): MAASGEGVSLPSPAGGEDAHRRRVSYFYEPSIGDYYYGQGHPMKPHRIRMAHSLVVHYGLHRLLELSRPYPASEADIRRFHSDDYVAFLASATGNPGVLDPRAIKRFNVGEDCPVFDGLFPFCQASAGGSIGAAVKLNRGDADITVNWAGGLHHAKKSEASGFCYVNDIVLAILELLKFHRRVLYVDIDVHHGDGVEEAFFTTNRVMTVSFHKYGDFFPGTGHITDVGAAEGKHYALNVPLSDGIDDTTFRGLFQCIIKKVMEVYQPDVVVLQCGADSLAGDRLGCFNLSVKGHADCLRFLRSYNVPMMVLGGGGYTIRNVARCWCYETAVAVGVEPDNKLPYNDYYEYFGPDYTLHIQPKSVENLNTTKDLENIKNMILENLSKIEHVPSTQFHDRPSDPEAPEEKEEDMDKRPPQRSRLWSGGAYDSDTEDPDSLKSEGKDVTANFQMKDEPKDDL

Structure (SMILES): O=C(NO)c1ccc(CN2c3ccccc3S(=O)(=O)C[C@H]3CCCC[C@H]32)cc1
IC50 (Histone deacetylase 8 [1]): 1.1 µM | IC50 [2]: 0.008 µM | IC50 (Histone deacetylase 2 [3]): 24 µM | IC50 (Histone deacetylase 5): 9.1 µM | IC50 (Histone deacetylase 3 [4]): 24 µM | IC50 (Histone deacetylase 4): > 30 µM | IC50 (Histone deacetylase 11): 2.4 µM | IC50 [5]: 10 µM | IC50 (Histone deacetylase 1 [6]): 8.1 µM | IC50 (Histone deacetylase 9): 13 µM

Structure (SMILES): Cc1nc2ccccc2n1Cc1ccc(C(=O)NO)cc1F
IC50 (Histone deacetylase 8 [1]): 0.2 µM | IC50 [2]: 0.0008 µM | IC50 (Histone deacetylase 2 [3]): 20.3 µM | IC50 (Histone deacetylase 5): 0.2 µM | IC50 (Histone deacetylase 3 [4]): 12.5 µM | IC50 (Histone deacetylase 4): 0.5 µM | IC50 (Histone deacetylase 11): 12.9 µM | IC50 [5]: 20.4 µM

Structure (SMILES): O=C1Nc2ccccc2/C1=N/NC(=S)Nc1ccc(C(=O)NO)cc1
inhibition (Histone deacetylase 1 [13]): < 10% | inhibition [14]: 41% | IC50 (Histone deacetylase 8 [15]): 15.7 µM

Structure (SMILES): O=C(CCCc1ccccc1)Nc1ccc(C(=O)NO)cc1
IC50 [16]: 0.044 µM

More lines, now with the values ahead:

IC50 [7]: 0.002 µM | IC50 (Histone deacetylase 3 [8]): 0.08 µM | IC50 (Histone deacetylase 1 [9]): 0.07 µM
Structure (SMILES): COc1ccc(-c2cc(-c3ccoc3)c(C(=O)NCc3ccc(C(=O)NO)cc3)[nH]2)cc1

IC50 [10]: 0.0075 to 0.016 µM | IC50 (Histone deacetylase HD1B): 0.0075 to 0.016 µM | IC50 [11]: 0.0075 to 0.016 µM
Structure (SMILES): CCN(CC)Cc1ccc2cc(COC(=O)Nc3ccc(C(=O)NO)cc3)ccc2c1 [GIVINOSTAT]

IC50 (Histone deacetylase 2 [12]): 4.4 µM
Structure (SMILES): O=C(NO)c1ccc(CC(=O)N(CCO)c2ccccc2)cc1
